According to patent US9708314B2, “Heterocyclic amide compound” (NISSAN CHEMICAL INDUSTRIES, LTD., priority 2013, dated 2017):

Legend:
Type in all cases: in vivo
[1] = system: Echinochloa oryzacola Vasing.; assay: Test Example 1: herbicidal activity, application before weed generation in submerged conditions; settings: Application herbicide amount 320 g/ha; Seventeenth Table
Procedure, shortened: (§1)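 Rating, on a six-step scale from almost no effect (0) to almost completely withered (5), was made three weeks after pre-emergence treatment. Treatment was surface application to flooded pots at g/ha rates, with plants kept at 25° C. to 30° C.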

[2] = system: Monochoria vaginalis; assay: as above; settings: Application herbicide amount 320 g/ha; Seventeenth Table
Procedure, shortened: as §1

[3] = system: Scirpus juncoides; assay: as above; settings: Application herbicide amount 320 g/ha; Seventeenth Table
Procedure, shortened: as §1

[4] = system: transplanted Oryza sativa; assay: Test Example 1: effect on crop, application before weed generation in submerged conditions; settings: Application herbicide amount 320 g/ha; Seventeenth Table
Procedure, shortened: as §1

[5] = system: Cyperus difformis; assay: Test Example 3: herbicidal effect by application to foliage (Wagner pot, water depth 0.1-0.5 cm); settings: Nineteenth Table; application to foliage; application herbicide amount 320 g/ha
Procedure, shortened: (§2)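 Foliar spray, 14-day-old plants, emulsion diluted to target g/ha; rated 3 wk post-application, 0–5 scale (0 ≤5%, 5 ≥90% herbicidal ratio). Greenhouse 25–30 °C, alluvial soil.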

[6] = system: Echinochloa crus-galli var. crus-galli; assay: as above; settings: Nineteenth Table; application to foliage; application herbicide amount 320 g/ha
Procedure, shortened: as §2

[7] = system: Leptochloa chinensis; assay: as above; settings: Nineteenth Table; application to foliage; application herbicide amount 320 g/ha
Procedure, shortened: as §2

[8] = system: directly sowed Oryza sativa; assay: Test Example 3: effect on crop by application to foliage (Wagner pot, water depth 0.1-0.5 cm); settings: Nineteenth Table; application to foliage; application herbicide amount 320 g/ha
Procedure, shortened: as §2

[9] = system: Setaria viridis; assay: Test Example 4: herbicidal effect by application to foliage (diluvial soil, plastic box); settings: for G (Setaria viridis) herbicidal effect grade: foliage application; for G: herbicidal effect on Setaria viridis: application to foliage, application herbicide amount 320 g/ha
Procedure, shortened: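 Emulsion-formulated compound, diluted to a predetermined g/ha dose, applied by small sprayer to leaves and stems of 14-day-old seedlings grown in sterilized diluvial soil. Effect rated on 0–5 herbicidal-ratio scale three weeks on.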

Structure (SMILES) | A: Echinochloa oryzicola Vasing. (herbicidal effect grade) [1] | C: Monochoria vaginalis (herbicidal effect grade) [2] | B: Scirpus juncoides (herbicidal effect grade) [3] | a: transplanted Oryza sativa (effect on crop grade) [4] | E (herbicidal effect grade) [5] | H (herbicidal effect grade) [6] | D (herbicidal effect grade) [7] | b (effect on crop grade) [8] | G (Setaria viridis) herbicidal effect grade ([9]; Application herbicide amount 320 g/ha) | G: herbicidal effect on Setaria viridis [9] | G (Setaria viridis) herbicidal effect grade ([9]; 320 g/ha)
Cc1nnc(NC(=O)c2ccc(C(F)(F)F)n3c(N4CCS(=O)(=O)CC4)nnc23)o1 [1-120] | 5 (Herbicidal ratio of 90% or more (almost completely withered)) | 1 (Herbicidal ratio of 5% or more and less than 20%) | 3 (Herbicidal ratio of 40% or more and less than 70%) | 3 (Herbicidal ratio of 40% or more and less than 70%) | 5 (Herbicidal ratio of 90% or more (almost completely withered)) | 5 (Herbicidal ratio of 90% or more (almost completely withered)) | 5 (Herbicidal ratio of 90% or more (almost completely withered)) | 3 (Herbicidal ratio of 40% or more and less than 70%) | 5 (Herbicidal ratio of 90% or more (almost completely withered)) | – | –
Cn1nnnc1NC(=O)c1ccc(C(F)(F)F)n2c(C3CCOC3)nnc12 (stereo not drawn) [2-022] | 5 (Herbicidal ratio of 90% or more (almost completely withered)) | 5 (Herbicidal ratio of 90% or more (almost completely withered)) | 5 (Herbicidal ratio of 90% or more (almost completely withered)) | 5 (Herbicidal ratio of 90% or more (almost completely withered)) | 5 (Herbicidal ratio of 90% or more (almost completely withered)) | 5 (Herbicidal ratio of 90% or more (almost completely withered)) | 5 (Herbicidal ratio of 90% or more (almost completely withered)) | 5 (Herbicidal ratio of 90% or more (almost completely withered)) | – | 5 (Herbicidal ratio of 90% or more (almost completely withered)) | –
Cn1nnnc1NC(=O)c1ccc(C(F)(F)F)n2c(C3=NOC(C)(C)C3)nnc12 [2-028] | 5 (Herbicidal ratio of 90% or more (almost completely withered)) | 5 (Herbicidal ratio of 90% or more (almost completely withered)) | 5 (Herbicidal ratio of 90% or more (almost completely withered)) | 5 (Herbicidal ratio of 90% or more (almost completely withered)) | 5 (Herbicidal ratio of 90% or more (almost completely withered)) | 5 (Herbicidal ratio of 90% or more (almost completely withered)) | 5 (Herbicidal ratio of 90% or more (almost completely withered)) | 5 (Herbicidal ratio of 90% or more (almost completely withered)) | – | – | 5 (Herbicidal ratio of 90% or more (almost completely withered))
CCC(C)c1nnc2c(C(=O)Nc3nnnn3C)ccc(C(F)(F)F)n12 (stereo not drawn) [2-016] | 5 (Herbicidal ratio of 90% or more (almost completely withered)) | 5 (Herbicidal ratio of 90% or more (almost completely withered)) | 5 (Herbicidal ratio of 90% or more (almost completely withered)) | 4 (Herbicidal ratio of 70% or more and less than 90%) | 5 (Herbicidal ratio of 90% or more (almost completely withered)) | 5 (Herbicidal ratio of 90% or more (almost completely withered)) | 5 (Herbicidal ratio of 90% or more (almost completely withered)) | 5 (Herbicidal ratio of 90% or more (almost completely withered)) | – | 5 (Herbicidal ratio of 90% or more (almost completely withered)) | –
